Data taken from patent US10206394B2, “Herbicidal compounds” (Syngenta Participations AG, priority 2014, dated 2019).
Where two headings read alike, the source gives them in different places.

Key:
Experiment in all cases: Glasshouse assay for herbicidal activity (pre- and post-emergence), percentage phytotoxicity
Type in all cases: in vivo
[1] = tested on: Echinochloa crus-galli (ECHCG); conditions: Echinochloa crus-galli, Rate 250 g/ha, 100%=total damage, 0%=no damage
Procedure: (§1) Test—Glasshouse Assay for Herbicidal Activity
(§2) Seeds of a variety of monocotyledonous and dicotyledonous test plants are sown in standard soil in pots. The plants are cultivated for one day (for pre-emergence (PRE)) or for about 12 days (for post-emergence (POST)) under controlled conditions in a glasshouse (warm climate species at 24/18° C., cool climate species at 20/16° C., both at day/night; 16 hours light; 65% humidity).
(§3) The test plants are then grown on, in a glasshouse (greenhouse) under controlled conditions (warm climate species at 24/18° C., cool climate species at 20/16° C., both at day/night; 16 hours light; 65% humidity) and are watered twice daily. 15 days after application of the test herbicide (15 DAA) (for post-emergence), and 20 days after application of the test herbicide (20 DAA) (for pre-emergence), the test plants are evaluated visually, and an assessed percentage phytotoxicity score is given for each herbicidal application on each plant species (with 100%=total damage to plant; 0%=no damage to plant).
(§4) The plant species tested are as follows: Alopecurus myosuroides (ALOMY), Avena fatua (AVEFA), Lolium perenne (LOLPE), Echinochloa crus-galli (ECHCG).

Lolium perenne (LOLPE) = conditions: Lolium perenne, Rate 250 g/ha, 100%=total damage, 0%=no damage
Procedure: as §1, §2, §3, §4

[2] = tested on: Alopecurus myosuroides (ALOMY); conditions: Rate 250 g/ha, 100%=total damage, 0%=no damage; for pest or weed control at 250 g/ha: Alopecurus myosuroides
Procedure: as §1, §2, §3, §4

Avena fatua (AVEFA) = conditions: Avena fatua, Rate 250 g/ha, 100%=total damage, 0%=no damage
Procedure: as §1, §2, §3, §4

[3] = post-emergence, 360 h, post-emergence, assessed visually 15 DAA, read-out: Post-emergence herbicidal activity (percentage phytotoxicity) ECHCG POST
[4] = pre-emergence, 480 h, pre-emergence, assessed visually 20 DAA, read-out: Pre-emergence herbicidal activity (percentage phytotoxicity) ECHCG PRE
[5] = post-emergence, 360 h, post-emergence, assessed visually 15 DAA, read-out: Post-emergence herbicidal activity (percentage phytotoxicity) LOLPE POST
[6] = pre-emergence, 480 h, pre-emergence, assessed visually 20 DAA, read-out: Pre-emergence herbicidal activity (percentage phytotoxicity) LOLPE PRE
[7] = post-emergence, 360 h, post-emergence, assessed visually 15 DAA, read-out: Post-emergence herbicidal activity (percentage phytotoxicity) ALOMY POST
[8] = pre-emergence, 480 h, pre-emergence, assessed visually 20 DAA, read-out: Pre-emergence herbicidal activity (percentage phytotoxicity) ALOMY PRE
[9] = post-emergence, 360 h, post-emergence, assessed visually 15 DAA, read-out: Post-emergence herbicidal activity (percentage phytotoxicity) AVEFA POST
[10] = pre-emergence, 480 h, pre-emergence, assessed visually 20 DAA, read-out: Pre-emergence herbicidal activity (percentage phytotoxicity) AVEFA PRE

Row | SMILES | pest or weed control at 250 g/ha [1, 3] [%] | pest or weed control at 250 g/ha [1, 4] [%] | pest or weed control at 250 g/ha (Lolium perenne (LOLPE); [5]) [%] | pest or weed control at 250 g/ha (Lolium perenne (LOLPE); [6]) [%] | pest or weed control at 250 g/ha [2, 7] [%] | pest or weed control at 250 g/ha [2, 8] [%] | pest or weed control at 250 g/ha (Avena fatua (AVEFA); [9]) [%] | pest or weed control at 250 g/ha (Avena fatua (AVEFA); [10]) [%] | Pre-emergence herbicidal activity (percentage phytotoxicity) ALOMY PRE ([2]; pre-emergence, assessed visually 20 DAA) [%]
1 | Cc1cc(-c2ncc(Cl)cc2F)cc(C)c1C1C(=O)CC(CC(=O)NC(C)c2ccc(F)cc2)C1=O (stereo not shown) [Compound A124] | 100 | 90 | 100 | 90 | 90 | 70 | 100 | 80 | –
2 | Cc1cc(-c2ncc(Cl)cc2F)cc(C)c1C1C(=O)CC(CC(=O)NCc2cccs2)C1=O (stereo not shown) [Compound A125] | 100 | 100 | 100 | 90 | 90 | 70 | 100 | 80 | –
3 | COc1ccccc1CNC(=O)CC1CC(=O)C(c2c(C)cc(-c3ncc(Cl)cc3F)cc2C)C1=O (stereo not shown) [Compound A126] | 100 | 100 | 80 | 80 | 30 | 30 | 90 | 50 | –
4 | Cc1cc(-c2ncc(Cl)cc2F)cc(C)c1C1C(=O)CC(CC(=O)NCc2ccsc2Br)C1=O (stereo not shown) [Compound A127] | 100 | 60 | 90 | 60 | 70 | 0 | 70 | 20 | –
5 | Cc1cc(-c2ncc(Cl)cc2F)cc(C)c1C1C(=O)CC(CC(=O)NCc2cnc(Cl)s2)C1=O (stereo not shown) [Compound A128] | 100 | 100 | 100 | 90 | 100 | 80 | 100 | 80 | –
6 | Cc1cc(-c2ncc(Cl)cc2F)cc(C)c1C1C(=O)CC(CC(=O)NCc2cncs2)C1=O (stereo not shown) [Compound A129] | 90 | – | 20 | – | 50 | – | 70 | – | –
7 | Cc1cc(-c2ncc(Cl)cc2F)cc(C)c1C1C(=O)CC(CC(=O)NCc2ccsc2)C1=O (stereo not shown) [Compound A130] | 100 | 100 | 100 | 90 | 90 | 70 | 100 | 90 | –
8 | Cc1ccsc1CNC(=O)CC1CC(=O)C(c2c(C)cc(-c3ncc(Cl)cc3F)cc2C)C1=O (stereo not shown) [Compound A131] | 100 | 100 | 100 | 70 | 90 | 40 | 100 | 50 | –
9 | Cc1cc(-c2ccc(Cl)cn2)cc(C)c1C1C(=O)CC(CC(=O)NCc2ncccc2Cl)C1=O (stereo not shown) [Compound A132] | 100 | 100 | 100 | 90 | 100 | 90 | 100 | 90 | –
10 | Cc1cc(-c2cnc(Cl)cn2)cc(C)c1C1C(=O)CC(CC(=O)NCc2cccc(C(F)(F)F)c2)C1=O (stereo not shown) [Compound A133] | 100 | 90 | 80 | 80 | 90 | – | 100 | 90 | 30
